Measured values as given in patent US20110274651A1, “Noscapine and Noscapine Analogs and Their Use in treating Infectious Diseases by Tubulin Binding Inhibition” (priority 2008, published 2011).
Like-named read-outs stand apart in the source and are kept apart here.

Experiments:
[1] = biological target: tubulin; conditions: literature values, refs [18], [12], [43]; read-out: dissociation constant (Kd) binding to tubulin; cited from earlier work
[2] = system: vaccinia virus; test: Plaque assay of vaccinia virus in BSC-40 cells; assay type: cell-based
[3] = biological target: T1, tubulin; test: Tubulin binding assay (fluorescence titration, quenching of intrinsic tubulin fluorescence); design: species or system Mammalian; conditions: double reciprocal plots; 0-100 μM ligand, 2 μM tubulin, 45 min at 37° C.; read-out: dissociation constant (Kd) binding to tubulin
T1 construct: other: double reciprocal plots; 0-100 μM ligand, 2 μM tubulin, 45 min at

Row | Compound | Kd [1] [µM] | Kd [3] [µM] | other results
1 | COc1ccc2c(c1OC)C(=O)O[C@@H]2[C@H]1c2c(c(Br)c3c(c2OC)OCO3)CCN1C [9-Br-nos, (S)-6,7-dimethoxy-3-((R)-4-methoxy-6-methyl-9-bromo-5,6,7,8-tetrahydro-[1,3]dioxolo[4,5-g]isoquinolin-5-yl)isobenzofuran-1(3H)-one] | 54 ± 9.1 |  | spread of vaccinia virus in BSC-40 cells [2]: inhibited; prevention of infection ([2]; 25 uM in 0.1% DMSO): does not prevent infection; plaque appearance ([2]; 25 uM in 0.1% DMSO, FIG. 1): only small “pinpoint” plaques are evident
2 | COc1ccc2c(c1OC)C(=O)O[C@@H]2[C@H]1c2c(c(Cl)c3c(c2OC)OCO3)CCN1C [9-Cl-nos] | 40 ± 8 |  | 
3 | COc1ccc2c(c1OC)C(=O)O[C@@H]2[C@H]1c2c(c(F)c3c(c2OC)OCO3)CCN1C [9-F-nos, (S)-6,7-dimethoxy-3-((R)-4-methoxy-6-methyl-9-fluoro-5,6,7,8-tetrahydro-[1,3]dioxolo[4,5-g]isoquinolin-5-yl)isobenzofuran-1(3H)-one] |  | 81 ± 8 | 
4 | COc1ccc2c(c1OC)C(=O)O[C@@H]2[C@H]1c2c(c(I)c3c(c2OC)OCO3)CCN1C [9-I-nos, (S)-6,7-dimethoxy-3-((R)-4-methoxy-6-methyl-9-iodo-5,6,7,8-tetrahydro-[1,3]dioxolo[4,5-g]isoquinolin-5-yl)isobenzofuran-1(3H)-one] |  | 22 ± 4 | 
5 | COc1ccc2c(c1OC)C(=O)O[C@@H]2[C@H]1c2c(cc3c(c2OC)OCO3)CCN1C [noscapine, (S)-6,7-dimethoxy-3-((R)-4-methoxy-6-methyl-5,6,7,8-tetrahydro-[1,3]dioxolo[4,5-g]isoquinolin-5-yl)isobenzofuran-1(3H)-one] | 144 ± 2.8 |  | 
